Experimental findings from ChEMBL document CHEMBL3832062, “DailyMed|setid=a9c47f08-bd02-4731-aaf7-42173155b2d0 | XENICAL- orlistat capsule|A-S Medication Solutions LLC” are described below.

A short description of the data set: Pharmacokinetic parameters for Orlistat evaluated after of oral administration of Orlistat capsules. In kind it is ADME, organism-based. The following applies: human, in vivo, dosed compound id 42, dosed compound name ORLISTAT, tissue Plasma.

SMILES strings stand for the structures.

Regarding `CCCCCCCCCCC[C@@H](C[C@@H]1OC(=O)[C@H]1CCCCCC)OC(=O)[C@H](CC(C)C)NC=O` [ORLISTAT], the half-life (commonly how long it takes for the measured level to halve) fell in the range of 1 to 2 h. The fraction unbound (read-out: Protein binding) was 0.01 to 0.99.
